MIC data for four molecules are collected here from patent EP2604600A1, “Isatin derivatives and their use in therapy” (priority 2011, dated 2013).

What all share (assay): microbe, parasite or virus in culture
What all share (assay type): cell-based

Assay [1] has as its system ATCC 35822 Isoniazid Resistant. The following applies: Mycobacterium tuberculosis, ATCC35822, 48 h.
Assay [2] concerns ATCC 35820 Streptomycin Resistant. The following applies: Mycobacterium tuberculosis, ATCC35820, 48 h.
For assay [3], the system named is ATCC 35837 Ethambutol Resistant. The note with it: Mycobacterium tuberculosis, ATCC35837, 48 h.
The subject of assay [4] is ATCC 35830 Ethionamide Resistant. The note with it: Mycobacterium tuberculosis, ATCC35830, 48 h.
Assay [5] has as its system ATCC 35827 Kanamycin Resistant. The note with it: Mycobacterium tuberculosis, ATCC35827, 48 h.
Assay [6] deals with ATCC 35821 Para-aminosalicylic Resistant. The following applies: Mycobacterium tuberculosis, ATCC35821, 48 h.

Molecules are shown by their SMILES. In brackets after ≈: the same amount, converted by molar mass.

In the case of `O=C(NN=C1C(=O)N(Cc2ccccc2)c2ccccc21)c1ccc([N+](=O)[O-])o1` [Compound 3g], the MIC in assay [1] turned out to be 156 mg/L (≈ 400 µM); in assay [2], 78 mg/L (≈ 200 µM); in assay [3] it was 0.156 mg/L (≈ 0.4 µM); in assay [4], 156 mg/L (≈ 400 µM); in assay [5] it was 156 mg/L (≈ 400 µM); in assay [6], 312 mg/L (≈ 799 µM).
As for `O=C1Nc2ccc(OC(F)(F)F)cc2C1=NNC(=O)c1ccc([N+](=O)[O-])o1` [Compound 3e], the MIC in assay [1] was found to be 5 mg/L (≈ 13 µM); in assay [2], 25 mg/L (≈ 65.1 µM); in assay [3], 2.5 mg/L (≈ 6.51 µM); in assay [4] it was 0.5 mg/L (≈ 1.3 µM); in assay [5], 5 mg/L (≈ 13 µM); in assay [6] it was 0.5 mg/L (≈ 1.3 µM).
As for `O=C1Nc2ccc(Cl)cc2C1=NNC(=O)c1ccncc1` [Compound 3a], the MIC in assay [1] came out at 10 mg/L (≈ 33.3 µM); in assay [2] it was 25 mg/L (≈ 83.1 µM); in assay [3], 1.25 mg/L (≈ 4.16 µM); in assay [4], 10 mg/L (≈ 33.3 µM); in assay [5] it was 25 mg/L (≈ 83.1 µM); in assay [6], 25 mg/L (≈ 83.1 µM).
Consider `O=C1Nc2ccc([N+](=O)[O-])cc2C1=NNC(=O)c1ccncc1` [Compound 3c], for which the MIC in assay [1] came to 10 mg/L (≈ 32.1 µM); in assay [2], 156 mg/L (≈ 501 µM); in assay [3], 0.156 mg/L (≈ 0.501 µM); in assay [4], 0.5 mg/L (≈ 1.61 µM); in assay [5], 312 mg/L (≈ 1000 µM); in assay [6], 156 mg/L (≈ 501 µM).
